Laboratory results published in the METLIN SMRT retention time set (Domingo-Almenara et al. 2019).

Test: gradient 5% acetonitrile 3 min, to 50% in 2 min, to 85% in 15 min, held 3 min, 100 µL/min
Conditions: column: Zorbax Extend-C18 2.1 x 50 mm; eluents: water / acetonitrile, 0.1% formic acid
Outline: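 Retention time was recorded from adduct peaks, which were picked computationally and each inspected manually. Pure standards ran in mixtures of ~100 molecules on HPLC coupled to a quadrupole time-of-flight mass spectrometer, in positive and negative ionization mode, through a Zorbax Extend-C18 column (2.1 × 50 mm, 1.8 μm) at 100 μL/min. Eluents were water and acetonitrile, each with 0.1% formic acid.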

Row | RP-LC retention time [s] | SMILES
1 | 709 | CCC(C)NC(=O)c1c(C)sc2ccn(CC)c(=O)c12 (stereo unspecified)
2 | 645 | COc1cc2c(cc1OC)C(C(=O)NC1CCCCCC1)C(c1cccnc1)N(C)C2=O (stereo unspecified)
3 | 696 | CCc1nc(-c2ccc(OC3CCN(C(=O)c4sc(C)nc4C)C3)cc2)no1 (stereo unspecified)
4 | 873 | CSc1cccc(NC(=O)N2CC=C(c3cn(C)c4ncccc34)CC2)c1
5 | 816 | COc1ccc(N2Cc3cccc(C(=O)O)c3C2=O)cc1
6 | 761 | Cc1ccn2cc(-c3ccc(NC(=O)CCC4CCCCC4)cc3)nc2n1
7 | 892 | Cc1cc(C)cc(NC(=O)N2CCC(n3cnc4c(Cl)cccc4c3=O)CC2)c1
8 | 982 | CCOc1ccc(C2Cn3nnc(-c4nc(-c5cccnc5)no4)c3CO2)cc1 (stereo unspecified)
9 | 660 | O=C(CSCc1ccccc1)NCC1(CO)CC1
10 | 942 | CCOC(=O)c1c(S(=O)(=O)N2CCC(C(=O)Nc3cc(C)cc(C)c3)CC2)c(C)n(C)c1C
11 | 620 | O=C(c1csc(S(=O)(=O)N2CCC(C(=O)N3CCOCC3)CC2)c1)N1CCOCC1
12 | 931 | Cc1ccc(F)cc1NS(=O)(=O)c1ccc(-c2nnc(C3CCC3)o2)o1
13 | 879 | CCCN1C(=O)c2c(C(=O)NCc3cccc(C)c3)ncn2CC1(C)C(=O)NCCC(C)C (stereo unspecified)
14 | 1110 | CCc1cccc(C)c1Nc1c(-c2ccc(Cl)cc2)nc2cnccn12
15 | 639 | O=C(CCCc1ccccc1)N1CCN(c2nc(CN3CCOCC3)cs2)CC1
16 | 1210 | COC(=O)c1ccc2c(=O)n(-c3cccc(OC)c3)c(N3CCCCCC3)nc2c1
17 | 704 | O=C(c1ccco1)N1CCN(c2ccc3cc(S(=O)(=O)N4CCCC4)ccc3n2)CC1
18 | 814 | Cc1ccc(S(=O)(=O)N2CCC3(CC2)NCCCN=C3NC2CCCC2)cc1Cl
19 | 679 | Cc1ccn2cc(-c3ccc(NS(=O)(=O)c4ccc(-c5csc(C)n5)s4)cc3)nc2n1
20 | 609 | CCOC(=O)CCNC(=O)N1c2ccccc2CC1c1nc(C(C)C)no1 (stereo unspecified)
21 | 772 | COc1ccc(N(Cc2nnc3n2CCCCC3)C(=O)Nc2ccccc2OC)cc1
22 | 663 | Cc1cnc(C2CCC2)n1C1CCN(C(=O)C2(c3ccccc3)CC2)CC1

Row | RP-LC retention time [s] | SMILES
23 | 990 | COc1cc(-c2nc(Cn3ccn4nc(-c5ccccc5)cc4c3=O)c(C)o2)cc(OC)c1OC
24 | 1000 | COc1ccc(CCS(=O)(=O)N(Cc2ccsc2)C2CC2)cc1
25 | 802 | CCn1cc(CCNC(=O)Nc2ccc(Br)cc2)c2cccnc21
26 | 927 | CCN1C(=O)c2cccnc2Sc2cc(NC(=O)COc3ccc(Cl)cc3)ccc21
27 | 927 | Cc1ccc(CNC(=O)C2(C)CCN(C(=O)Nc3ccccc3C(F)(F)F)CC2)cc1
28 | 930 | Cc1nc(-c2csc(S(=O)(=O)N3CCCC(C(=O)Nc4cccc(C#N)c4)C3)c2)no1 (stereo unspecified)
29 | 899 | COc1ccc(NC(=O)CN2C(=O)CC(c3cccs3)=Nc3ccccc32)cc1
30 | 1090 | Cc1ccc(N2CC(c3noc(-c4ccccc4C)n3)CC2=O)cc1 (stereo unspecified)
31 | 984 | COc1ccc(Cl)cc1NC(=O)Cn1c(=O)n(-c2ccc(C)cc2)c(=O)c2c1cc(C)n2C
32 | 830 | Oc1c(CN2CCN(c3ccccc3)CC2)cc(Br)c2cccnc12
33 | 1140 | CCOc1ccc(-n2c(=O)c3sccc3n(Cc3nc(-c4ccc(Cl)c(F)c4)no3)c2=O)cc1
34 | 1070 | CCOC(=O)c1noc2ncnc(Nc3ccc(C)c(C)c3)c12
35 | 1040 | Cn1cccc1C(=O)C(=O)Nc1cccc(Br)c1
36 | 770 | CC(C)NC(=O)N(C1CC1)C1CCOC2(CCN(C(=O)Cc3ccsc3)CC2)C1 (stereo unspecified)
37 | 750 | COCCCNC(=O)C1c2ccccc2C(=O)N1Cc1cccc(Br)c1 (stereo unspecified)
38 | 744 | O=S(=O)(c1cccs1)N1CCC(n2cnnc2-c2ccccc2)CC1
39 | 1230 | COc1cccc(NC(=O)Cc2c(C)nn(-c3nc(-c4ccc(Cl)cc4)cs3)c2C)c1
40 | 723 | O=C1CCCc2c1cc(C(=O)N1CCOCC1)c(=O)n2-c1ccc(C(F)(F)F)cc1
41 | 919 | Cc1ccc(C)c(NC(=O)N(C)CCc2noc(COc3ccccc3F)n2)c1
42 | 970 | CCn1c(C(=O)N2CCCC(C(=O)N3CCN(c4ccccc4)CC3)C2)cc2sccc21 (stereo unspecified)
43 | 885 | CCOCCCNC(=O)C1=NN(c2ccc(F)cc2)c2ccc(F)cc2S1(=O)=O
44 | 1040 | CCc1cc(=O)n(CC(=O)NCc2cccs2)c(-c2ccccc2)n1

Row | RP-LC retention time [s] | SMILES
45 | 743 | CCCN(C)c1nccn2c(=O)n(CC(=O)Nc3ccc(C)cc3Br)nc12
46 | 716 | Cn1nc(N2CCC(NC(=O)CCC3CCCC3)C2)ccc1=O (stereo unspecified)
47 | 658 | CCN(CC)C(=O)c1ccc2c(c1)nnn2CCNC(=O)NC(C)(C)C
48 | 687 | COc1ccccc1NC(=O)N1CCCN(Cc2nc3cc(Cl)ccc3o2)CC1
49 | 618 | CCc1cc(=O)n(CC(=O)Nc2ccc(Cl)cc2)c(N)n1
50 | 1090 | Cn1cc(C(=O)Nc2ccc3c(c2)CCC3)c(S(=O)(=O)N2CCCCC2)n1
51 | 644 | CCC(=O)N1CCC([C@H]2[C@@H](OC)C(=O)N2C(C)C)CC1
52 | 806 | COc1ccc(S(=O)(=O)N2CCC(c3nc(C(=O)N(C)C)c(C)o3)CC2)cc1Cl
53 | 1100 | Cc1cc2nn(CC(=O)N(C)c3ccccc3)c(=O)n2c(Nc2ccc(C)c(C)c2)n1
54 | 637 | O=C(Nc1cccc(-c2cn3cccnc3n2)c1)c1ccccc1[N+](=O)[O-]
55 | 760 | COc1cc2nc(C(=O)N3CCCCC3)cc(Nc3cc(C)cc(C)c3)c2cc1OC
56 | 972 | CCOc1ccc(NC(=O)C2CCN(S(C)(=O)=O)c3cc(C)ccc3O2)cc1 (stereo unspecified)
57 | 733 | O=C(CCCN1CCN(Cc2ccc(F)cc2)C(=O)C1=O)NCCc1ccc(Cl)cc1
58 | 705 | O=C(CN1CCC(c2nc(-c3cccc(F)c3)no2)CC1)NC1CCCCC1
59 | 1240 | CCOC(=O)c1noc2ncnc(NCCCN3CCCc4ccccc43)c12
60 | 657 | CC(C)(C)c1cc(C(=O)NCc2cccnc2)nc2ccnn12
61 | 696 | CCOC(=O)C(C)NC(=O)NCC(=O)N1CCc2ccccc21 (stereo unspecified)
62 | 824 | Cc1nnc(-c2ccc3ccn(CC(=O)NCCc4ccc(Cl)cc4)c3c2)o1
63 | 787 | Cc1cc(C)cc(C(=O)N2CCC3(CC2)NC(=O)c2ccc(F)cc2N3C)c1
64 | 837 | O=C(Cn1nc(N2CCCC2)c2ccccc2c1=O)NCc1ccccc1
65 | 731 | CC(=O)N1CCc2cc(C)c(S(=O)(=O)Nc3cccc(F)c3)cc21
66 | 753 | Cc1ccc(-c2nc3cnccn3c2Nc2ccc(C(=O)NCc3ccco3)cc2)cc1
